# In USRE46511E1, “Fused pyrimidine derivatives for inhibition of tyrosine kinase activity” (HANMI SCIENCE CO., LTD., priority 2010, dated 2017):
# Key:
# [1] = test system: HCC827 (EGFR DelE746_A750); assay: Inhibition test for growth of cancer cell expressing EGFR (SRB), HCC827; type: cell-based; details: Homo sapiens, HCC827, 72 h, HCC827 cells, 72 hours, SRB; read-out: GI50 HCC827 EGFR DelE746_A750;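 also: cells in 96-well plates exposed to tenfold serial dilutions from 100 µM, fixed with trichloroacetic acid, SRB-stained, absorbance read at 540 nm, DMSO under 1%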
# Description: (§1) A431 cell line was incubated in a high-glucose DMEM (Dulbecco's Modified Eagle's Medium) supplemented with 10% fetal bovine serum (FBS) and 1% penicillin/streptomycin (Gibco BRL), and HCC827 and NCI-H1975 cell lines were incubated in an RPMI medium supplemented with 10% FBS, 1% penicillin/streptomycin and 1% sodium pyruvate.
# (§2) The cancer cell lines stored in a liquid nitrogen tank were each quickly thawed at 37° C., and centrifuged to remove the medium. The resulting cell pellet was mixed with a culture medium, incubated in a culture flask at 37° C. under 5% CO2 for 2 to 3 days, and the medium was removed. The remaining cells were washed with DPBS (Dulbecco's Phosphate Buffered Saline) and separated from the flask by using Tripsin-EDTA. […] 100 μl of the diluted cell solution was added to each well of a 96-well plate, and incubated at 37° C. under 5% CO2 for 1 day.
# (§3) In case that the test compound was not soluble in DMSO, 1% HCl was added thereto and treated in a 40° C. water bath for 30 mins until a complete dissolution was attained. The DMSO solution containing test compound was diluted with a culture medium to a final concentration of 100 μM, and then diluted 10 times serially to 10^−6 μM (a final concentration of DMSO was less than 1%).
# (§4) The medium was removed from each well of the 96-well plate. And then, 100 μl of a test compound solution was added to each well holding the cultured cells, and the plate was incubated at 37° C. under 5% CO2 for 72 hours (except that NCI-H1975 cells were incubated for 48 hours). After removing the medium from the plate, 50 μA of 10% trichloroacetic acid was added to each well, and the plate was kept at 4° C. for 1 hour to fix the cells to the bottom of the plate. The added 10% trichloroacetic acid solution was removed from each well, the plate was dried, 100 μA of an SRB (Sulforhodamine-B) dye solution at a concentration of 0.4% dissolved in 1% acetic acid was added thereto, and the resulting mixture was reacted for 10 mins at room temperature. After removing the dye solution, the plate was washed with water, and well dried. When the dye solution was not effectively removed by water, 1% acetic acid was used. 150 μA of 10 mM trisma base was added to each well, and the absorbance at 540 nm wavelength was determined with a microplate reader.
# [2] = test system: NCI-H1975 (EGFR L858R/T790M); assay: Inhibition test for growth of cancer cell expressing EGFR (MTS), NCI-H1975; type: cell-based; details: Homo sapiens; NCI-H1975 cells, 48 hours, MTS; read-out: GI50 NCI-H1975 EGFR L858R/T790M
# Description: as §1, §2, §3, §4
smiles,measurement,setting,value
C=CC(=O)Nc1cccc(Oc2nc(Nc3ccc(N4CCN(C)CC4)c(F)c3OC)nc3ccsc23)c1 [Example 6],GI50,[1],0.05 to 0.1 µM
same,GI50,[2],< 0.05 µM
C=CC(=O)Nc1cccc(Oc2nc(Nc3ccc(N4CCN(C(C)(C)C)CC4)cc3)nc3ccsc23)c1 [Example 12],GI50,[1],< 0.05 µM
same,GI50,[2],< 0.05 µM
C=CC(=O)Nc1cccc(Oc2nc(Nc3ccc(N4CCN(CCF)CC4)cc3)nc3ccsc23)c1 [Example 14],GI50,[1],< 0.05 µM
same,GI50,[2],0.05 to 0.1 µM
C=CC(=O)Nc1cccc(Oc2nc(Nc3ccc(N4CCN(CC(F)F)CC4)cc3)nc3ccsc23)c1 [Example 15],GI50,[1],< 0.05 µM
same,GI50,[2],< 0.05 µM
C=CC(=O)Nc1cccc(Oc2nc(Nc3ccc(N4CCN(CC(F)(F)F)CC4)cc3)nc3ccsc23)c1 [Example 16],GI50,[1],0.05 to 0.1 µM
same,GI50,[2],< 0.05 µM
C=CC(=O)Nc1cccc(Oc2nc(Nc3ccc(N4CCN(CCOC)CC4)cc3)nc3ccsc23)c1 [Example 17],GI50,[1],< 0.05 µM
same,GI50,[2],< 0.05 µM
C=CC(=O)Nc1cccc(Oc2nc(Nc3ccc(N4CCN(CCO)CC4)cc3)nc3ccsc23)c1 [Example 18],GI50,[1],< 0.05 µM
same,GI50,[2],< 0.05 µM
C=CC(=O)Nc1cccc(Oc2nc(Nc3ccc(N4CCN(C(=O)N5CCOCC5)CC4)cc3)nc3ccsc23)c1 [Example 22],GI50,[1],< 0.05 µM
same,GI50,[2],0.05 to 0.1 µM
C=CC(=O)Nc1cccc(Oc2nc(Nc3ccc(N4CCN(S(=O)(=O)N(C)C)CC4)cc3)nc3ccsc23)c1 [Example 25],GI50,[1],0.05 to 0.1 µM
same,GI50,[2],0.05 to 0.1 µM
C=CC(=O)Nc1cccc(Oc2nc(Nc3ccc(N4CC(C)N(C)C(C)C4)cc3)nc3ccsc23)c1 (stereo not shown) [Example 27],GI50,[1],< 0.05 µM
same,GI50,[2],< 0.05 µM
C=CC(=O)Nc1cccc(Oc2nc(Nc3ccc(N4CCC(n5ccnc5)C4)cc3)nc3ccsc23)c1 (stereo not shown) [Example 35],GI50,[1],< 0.05 µM
same,GI50,[2],< 0.05 µM
C=CC(=O)Nc1cccc(Oc2nc(Nc3ccc(N4CCC(N(C)C)CC4)cc3)nc3ccsc23)c1 [Example 38],GI50,[1],< 0.05 µM
same,GI50,[2],< 0.05 µM
C=CC(=O)Nc1cccc(Oc2nc(Nc3ccc(N4CCC(C(=O)N(C)C)CC4)cc3)nc3ccsc23)c1 [Example 45],GI50,[1],< 0.05 µM
same,GI50,[2],< 0.05 µM
C=CC(=O)Nc1cccc(Oc2nc(Nc3ccc(N4CCC(n5ccnc5)CC4)cc3)nc3ccsc23)c1 [Example 46],GI50,[1],< 0.05 µM
same,GI50,[2],< 0.05 µM
C=CC(=O)Nc1cccc(Oc2nc(Nc3ccc(N4CCC(N5CCOCC5)CC4)cc3)nc3ccsc23)c1 [Example 49],GI50,[1],< 0.05 µM
same,GI50,[2],< 0.05 µM
C=CC(=O)Nc1cccc(Oc2nc(Nc3ccc(-n4ccnc4)cc3)nc3ccsc23)c1 [Example 56],GI50,[1],0.05 to 0.1 µM
same,GI50,[2],< 0.05 µM
C=CC(=O)Nc1cccc(Oc2nc(Nc3ccc(O)cc3)nc3ccsc23)c1 [Example 60],GI50,[1],0.1 to 1 µM
same,GI50,[2],0.1 to 1 µM
C=CC(=O)Nc1cccc(Oc2nc(Nc3ccc(OCCOC)cc3)nc3ccsc23)c1 [Example 61],GI50,[1],0.05 to 0.1 µM
same,GI50,[2],< 0.05 µM
C=CC(=O)Nc1cccc(Oc2nc(Nc3ccc(S(C)(=O)=O)cc3)nc3ccsc23)c1 [Example 69],GI50,[1],0.05 to 0.1 µM
same,GI50,[2],< 0.05 µM
C=CC(=O)Nc1cccc(Oc2nc(Nc3ccc(S(=O)(=O)NC4CC4)cc3)nc3ccsc23)c1 [Example 71],GI50,[1],0.05 to 0.1 µM
same,GI50,[2],< 0.05 µM
C=CC(=O)Nc1cccc(Oc2nc(Nc3ccc(C(C)=O)cc3)nc3ccsc23)c1 [Example 77],GI50,[1],< 0.05 µM
same,GI50,[2],< 0.05 µM
C=CC(=O)Nc1cccc(Oc2nc(Nc3ccc(C(=O)NC)cc3)nc3ccsc23)c1 [Example 78],GI50,[1],0.05 to 0.1 µM
same,GI50,[2],0.05 to 0.1 µM
C=CC(=O)Nc1cccc(Oc2nc(Nc3ccc(C(=O)N(C)C)cc3)nc3ccsc23)c1 [Example 84],GI50,[1],0.05 to 0.1 µM
same,GI50,[2],0.05 to 0.1 µM
C=CC(=O)Nc1cccc(Oc2nc(Nc3ccc(NC(=O)CCN4CCCC4)cc3)nc3ccsc23)c1 [Example 92],GI50,[1],< 0.05 µM
same,GI50,[2],< 0.05 µM
C=CC(=O)Nc1cccc(Oc2nc(Nc3ccc(C(=O)OCCCN(C)C)cc3)nc3ccsc23)c1 [Example 93],GI50,[1],0.05 to 0.1 µM
same,GI50,[2],0.05 to 0.1 µM
C=CC(=O)Nc1cccc(Oc2nc(Nc3ccc(CCS(C)(=O)=O)cc3)nc3ccsc23)c1 [Example 97],GI50,[1],0.05 to 0.1 µM
same,GI50,[2],< 0.05 µM
C=CC(=O)Nc1cccc(Oc2nc(Nc3ccc(CCN4CCCCC4)cc3)nc3ccsc23)c1 [Example 98],GI50,[1],< 0.05 µM
same,GI50,[2],< 0.05 µM
C=CC(=O)Nc1cccc(Oc2nc(Nc3ccc(/C=C/CN4CCCCC4)cc3)nc3ccsc23)c1 [Example 102],GI50,[1],< 0.05 µM
same,GI50,[2],0.05 to 0.1 µM
C=CC(=O)Nc1cccc(Oc2nc(Nc3ccc4c(c3)OCCO4)nc3ccsc23)c1 [Example 106],GI50,[1],0.05 to 0.1 µM
same,GI50,[2],< 0.05 µM
C=CC(=O)Nc1cccc(Oc2nc(Nc3ccc4c(c3)CCCC(=O)N4C)nc3ccsc23)c1 [Example 108],GI50,[1],0.05 to 0.1 µM
same,GI50,[2],0.05 to 0.1 µM
C=CC(=O)Nc1cccc(Oc2nc(Nc3ccc4c(ccn4C)c3)nc3ccsc23)c1 [Example 111],GI50,[1],0.05 to 0.1 µM
same,GI50,[2],< 0.05 µM
C=CC(=O)Nc1cccc(Oc2nc(Nc3ccc(C4CCN(C)CC4)cc3OC)nc3ccsc23)c1 [Example 114],GI50,[1],0.05 to 0.1 µM
same,GI50,[2],< 0.05 µM
C=CC(=O)Nc1cccc(Oc2nc(Nc3ccc(OCCN4CCOCC4)c(OC)c3)nc3ccsc23)c1 [Example 116],GI50,[1],< 0.05 µM
same,GI50,[2],< 0.05 µM
C=CC(=O)Nc1cccc(Oc2nc(Nc3ccc(C(=O)NCCN4CCCC4)cc3OC)nc3ccsc23)c1 [Example 117],GI50,[1],< 0.05 µM
same,GI50,[2],0.05 to 0.1 µM
C=CC(=O)Nc1cccc(Oc2nc(Nc3ccc(C(=O)NC4CCN(C)CC4)c(OC)c3)nc3ccsc23)c1 [Example 118],GI50,[1],< 0.05 µM
same,GI50,[2],0.05 to 0.1 µM
C=CC(=O)Nc1cccc(Oc2nc(Nc3ccc(N4CCN(C(=O)CN(C)C)CC4)c(F)c3)nc3ccsc23)c1 [Example 119],GI50,[1],< 0.05 µM
same,GI50,[2],< 0.05 µM
C=CC(=O)Nc1cccc(Oc2nc(Nc3ccc(N4CCN(S(=O)(=O)CC)CC4)c(F)c3)nc3ccsc23)c1 [Example 121],GI50,[1],0.05 to 0.1 µM
same,GI50,[2],< 0.05 µM
C=CC(=O)Nc1cccc(Oc2nc(Nc3ccc(N4CC(C)OC(C)C4)c(F)c3)nc3ccsc23)c1 (stereo not shown) [Example 123],GI50,[1],0.05 to 0.1 µM
same,GI50,[2],0.05 to 0.1 µM
C=CC(=O)Nc1cccc(Oc2nc(Nc3ccc(N4CCC(N5CCCC5)CC4)c(F)c3)nc3ccsc23)c1 [Example 124],GI50,[1],< 0.05 µM
same,GI50,[2],< 0.05 µM
C=CC(=O)Nc1cccc(Oc2nc(Nc3ccc(N4CCC(N5CCOCC5)CC4)c(F)c3)nc3ccsc23)c1 [Example 126],GI50,[1],< 0.05 µM
same,GI50,[2],< 0.05 µM
C=CC(=O)Nc1cccc(Oc2nc(Nc3ccc(OCCOC)c(F)c3)nc3ccsc23)c1 [Example 131],GI50,[1],0.05 to 0.1 µM
same,GI50,[2],< 0.05 µM
C=CC(=O)Nc1cccc(Oc2nc(Nc3ccc(OCCN(C)C)c(F)c3)nc3ccsc23)c1 [Example 132],GI50,[1],< 0.05 µM
same,GI50,[2],< 0.05 µM
C=CC(=O)Nc1cccc(Oc2nc(Nc3ccc(OCCN(CC)CC)c(F)c3)nc3ccsc23)c1 [Example 133],GI50,[1],< 0.05 µM
same,GI50,[2],< 0.05 µM
C=CC(=O)Nc1cccc(Oc2nc(Nc3ccc(OCCN4CCN(C)CC4)c(F)c3)nc3ccsc23)c1 [Example 134],GI50,[1],< 0.05 µM
same,GI50,[2],< 0.05 µM
C=CC(=O)Nc1cccc(Oc2nc(Nc3ccc(OCCN4CCOCC4)c(F)c3)nc3ccsc23)c1 [Example 135],GI50,[1],0.05 to 0.1 µM
same,GI50,[2],< 0.05 µM
C=CC(=O)Nc1cccc(Oc2nc(Nc3ccc(OC4CCN(C)CC4)c(F)c3)nc3ccsc23)c1 [Example 136],GI50,[1],< 0.05 µM
same,GI50,[2],< 0.05 µM
C=CC(=O)Nc1cccc(Oc2nc(Nc3ccc(N4CCC(N5CCCC5)CC4)c(Cl)c3)nc3ccsc23)c1 [Example 138],GI50,[1],< 0.05 µM
same,GI50,[2],< 0.05 µM
C=CC(=O)Nc1cccc(Oc2nc(Nc3ccc(N4CCC(N5CCOCC5)CC4)c(Cl)c3)nc3ccsc23)c1 [Example 139],GI50,[1],< 0.05 µM
same,GI50,[2],< 0.05 µM
C=CC(=O)Nc1cccc(Oc2nc(Nc3ccc(C(=O)N(C)C)c(Cl)c3)nc3ccsc23)c1 [Example 143],GI50,[1],0.05 to 0.1 µM
same,GI50,[2],< 0.05 µM
C=CC(=O)Nc1cccc(Oc2nc(Nc3ccc(C(=O)N4CCN(S(=O)(=O)CC)CC4)c(Cl)c3)nc3ccsc23)c1 [Example 144],GI50,[1],< 0.05 µM
same,GI50,[2],0.05 to 0.1 µM
C=CC(=O)Nc1cccc(Oc2nc(Nc3ccc(N4CCN(CCO)CC4)cn3)nc3ccsc23)c1 [Example 156],GI50,[1],< 0.05 µM
same,GI50,[2],0.05 to 0.1 µM
C=CC(=O)Nc1cccc(Oc2nc(Nc3ccc(C4(N)CC4)cc3)nc3ccsc23)c1 [Example 160],GI50,[1],< 0.05 µM
same,GI50,[2],< 0.05 µM
C=CC(=O)Nc1cccc(Oc2nc(Nc3ccc(NC(=O)N4CCN(C)CC4)cc3)nc3ccsc23)c1 [Example 172],GI50,[1],0.05 to 0.1 µM
same,GI50,[2],< 0.05 µM
C=CC(=O)Nc1cccc(Oc2nc(Nc3ccc(CN4CCC4)cc3)nc3ccsc23)c1 [Example 175],GI50,[1],< 0.05 µM
same,GI50,[2],< 0.05 µM
C=CC(=O)Nc1cccc(Oc2nc(Nc3ccc(CCO)cc3)nc3ccsc23)c1 [Example 190],GI50,[1],< 0.05 µM
same,GI50,[2],< 0.05 µM
C=CC(=O)Nc1cccc(Oc2nc(Nc3ccc(CCN(C)C)cc3)nc3ccsc23)c1 [Example 191],GI50,[1],< 0.05 µM
same,GI50,[2],< 0.05 µM
C=CC(=O)Nc1cccc(Oc2nc(Nc3ccc(CN4CCC(N(C)C)CC4)c(F)c3)nc3ccsc23)c1 [Example 196],GI50,[1],< 0.05 µM
same,GI50,[2],0.05 to 0.1 µM
C=CC(=O)Nc1cccc(Oc2nc(Nc3ccc(CN4CCN(C)CC4)c(F)c3)nc3ccsc23)c1 [Example 197],GI50,[1],< 0.05 µM
same,GI50,[2],< 0.05 µM
C=CC(=O)Nc1cccc(Oc2nc(Nc3ccc(NC(=O)N4CCN(C)CC4)c(F)c3)nc3ccsc23)c1 [Example 201],GI50,[1],< 0.05 µM
same,GI50,[2],0.05 to 0.1 µM
C=CC(=O)Nc1cccc(Oc2nc(Nc3ccc(CN4CCN(C5CCN(C)CC5)CC4)c(Cl)c3)nc3ccsc23)c1 [Example 202],GI50,[1],0.05 to 0.1 µM
same,GI50,[2],< 0.05 µM
C=CC(=O)Nc1cccc(Oc2nc(Nc3ccc(CN(C)C)cc3C)nc3ccsc23)c1 [Example 205],GI50,[1],< 0.05 µM
same,GI50,[2],< 0.05 µM
C=CC(=O)Nc1cccc(Nc2nc(Nc3ccc(N4CCN(C(C)C)CC4)cc3)nc3ccsc23)c1 [Example 208],GI50,[1],< 0.05 µM
same,GI50,[2],< 0.05 µM
